The source made the active and inactive calls. The rule behind the calls is not given here.
System: CCRIS mutagenicity, Ames/micronucleus/aberration tests
Assay: CCRIS mutagenicity studies
[1] = Test System: AMES SALMONELLA TYPHIMURIUM, Strain/Indicator: TA98, Metabolic Activation: NONE, Method: STANDARD PLATE
[2] = Test System: AMES SALMONELLA TYPHIMURIUM, Strain/Indicator: TA98, Metabolic Activation: RAT, LIVER, S-9, AROCLOR 1254, Method: STANDARD PLATE
[3] = Test System: AMES SALMONELLA TYPHIMURIUM, Strain/Indicator: TA100, Metabolic Activation: NONE, Method: STANDARD PLATE
[4] = Test System: AMES SALMONELLA TYPHIMURIUM, Strain/Indicator: TA100, Metabolic Activation: RAT, LIVER, S-9, AROCLOR 1254, Method: STANDARD PLATE
[5] = Test System: AMES SALMONELLA TYPHIMURIUM, Strain/Indicator: TA1535, Metabolic Activation: NONE, Method: STANDARD PLATE
[6] = Test System: AMES SALMONELLA TYPHIMURIUM, Strain/Indicator: TA1535, Metabolic Activation: RAT, LIVER, S-9, AROCLOR 1254, Method: STANDARD PLATE
[7] = Test System: AMES SALMONELLA TYPHIMURIUM, Strain/Indicator: TA1537, Metabolic Activation: NONE, Method: STANDARD PLATE
[8] = Test System: AMES SALMONELLA TYPHIMURIUM, Strain/Indicator: TA1537, Metabolic Activation: RAT, LIVER, S-9, AROCLOR 1254, Method: STANDARD PLATE
[9] = Test System: AMES SALMONELLA TYPHIMURIUM, Strain/Indicator: TA1538, Metabolic Activation: NONE, Method: STANDARD PLATE
[10] = Test System: AMES SALMONELLA TYPHIMURIUM, Strain/Indicator: TA1538, Metabolic Activation: RAT, LIVER, S-9, AROCLOR 1254, Method: STANDARD PLATE

CCCCOCCOCCOCc1cc2c(cc1CCC)OCO2
mutagenic call (End Point: IN VITRO CHROMOSOMAL ABERRATIONS, Test System: CHINESE HAMSTER OVARY CELLS, Metabolic Activation: NONE): inactive; negative; precipitation occurred at 287 ug/ml
mutagenic call (End Point: IN VITRO CHROMOSOMAL ABERRATIONS, Test System: CHINESE HAMSTER OVARY CELLS, Metabolic Activation: RAT, LIVER, S-9, AROCLOR 1254): inactive; negative; precipitation occurred at 496 ug/ml
mutagenic call (Test System: AMES SALMONELLA TYPHIMURIUM, Strain/Indicator: TA97, Metabolic Activation: NONE, Method: PREINCUBATION): inactive; negative
mutagenic call (Test System: AMES SALMONELLA TYPHIMURIUM, Strain/Indicator: TA97, Metabolic Activation: RAT, LIVER, S-9, AROCLOR 1254, Method: PREINCUBATION): inactive; negative
mutagenic call [1]: inactive; negative
mutagenic call [2]: inactive; negative
mutagenic call [3]: inactive; negative
mutagenic call [4]: inactive; negative
mutagenic call (Test System: AMES SALMONELLA TYPHIMURIUM, Strain/Indicator: TA102, Metabolic Activation: NONE, Method: PREINCUBATION): inactive; negative
mutagenic call (Test System: AMES SALMONELLA TYPHIMURIUM, Strain/Indicator: TA102, Metabolic Activation: RAT, LIVER, S-9, AROCLOR 1254, Method: PREINCUBATION): inactive; negative
mutagenic call [5]: inactive; negative
mutagenic call [6]: inactive; negative
mutagenic call [7]: inactive; negative
mutagenic call [8]: inactive; negative
mutagenic call [9]: inactive; negative
mutagenic call [10]: inactive; negative
mutagenic call (Test System: CHINESE HAMSTER OVARY, Strain/Indicator: CHO-K1-BH4 (HGPRT)/6-THIOGUANINE, Metabolic Activation: NONE): inactive; negative
mutagenic call (Test System: CHINESE HAMSTER OVARY, Strain/Indicator: CHO-K1-BH4 (HGPRT)/6-THIOGUANINE, Metabolic Activation: RAT, LIVER, S-9, AROCLOR 1254): inactive; negative
mutagenic call (Test System: UDS HUMAN HEPATOCYTES, Strain/Indicator: THY INCORP, Metabolic Activation: NONE, Method: AUTORADIOGRAPHY): inactive; negative
mutagenic call (Test System: UDS RAT HEPATOCYTES, Strain/Indicator: THY INCORP, Metabolic Activation: NONE, Method: AUTORADIOGRAPHY): inactive; negative

c1ccc2c(c1)cc1c3c2ccc2cccc(c23)C1
mutagenic call [1]: inactive; negative
mutagenic call [2]: active; positive
mutagenic call [4]: active; positive

C1CC2OC2CCC2OC12 (stereo unspecified)
mutagenic call [3]: inactive; negative
mutagenic call [5]: inactive; negative

CN(N)c1ccn([C@@H]2O[C@H](CO)[C@@H](O)[C@H]2O)c(=O)n1
mutagenic call (Test System: CHINESE HAMSTER V-79, Strain/Indicator: V-79/6-THIOGUANINE, Metabolic Activation: NONE, Method: REPLATING): inactive; negative

C[C@@H]1O[C@@H]1c1ccccc1
mutagenic call (Test System: AMES SALMONELLA TYPHIMURIUM, Strain/Indicator: TA98, Metabolic Activation: NONE, Method: PREINCUBATION (PHOSPHATE-BUFFERED KCL OR SOLUTE-FREE WATER MEDIA)): inactive; negative
mutagenic call (Test System: AMES SALMONELLA TYPHIMURIUM, Strain/Indicator: TA100, Metabolic Activation: NONE, Method: PREINCUBATION (PHOSPHATE-BUFFERED KCL OR SOLUTE-FREE WATER MEDIA)): inactive; negative
mutagenic call (Test System: AMES SALMONELLA TYPHIMURIUM, Strain/Indicator: TA104, Metabolic Activation: NONE, Method: PREINCUBATION (PHOSPHATE-BUFFERED KCL OR SOLUTE-FREE WATER MEDIA)): inactive; negative
mutagenic call (Test System: CHINESE HAMSTER V-79, Strain/Indicator: V-79 (HPRT)/6-THIOGUANINE, Metabolic Activation: NONE): inactive; negative

Cc1c2c3ccccc3nc-2n(C)c2c(C)cccc12
mutagenic call (Test System: AMES SALMONELLA TYPHIMURIUM, Strain/Indicator: TA97, Metabolic Activation: RAT, LIVER, S-9, AROCLOR 1254, Method: STANDARD PLATE): active; positive

CCCCCCCCCCCCCCCC(=O)OC/C=C(C)/C=C/C=C(C)/C=C/C1=C(C)CCCC1(C)C
mutagenic call (End Point: IN VIVO CHROMOSOMAL ABERRATIONS, Test System: BONE MARROW CELLS, Species: RAT, Strain/Sex: WISTAR/MALE, FEMALE, Route: ORAL (GAVAGE)): active; positive (structural changes; abnormal metaphase)
mutagenic call (End Point: IN VIVO CHROMOSOMAL ABERRATIONS, Test System: BONE MARROW, Species: RAT, Strain/Sex: WISTAR/MALE, FEMALE, Route: GAVAGE): active; positive (structural changes)
mutagenic call (End Point: IN VIVO MICRONUCLEUS, Test System: BONE MARROW POLYCHROMATIC ERYTHROCYTES, Species: MOUSE, Strain/Sex: DDY/MALE, Route: IP): inactive; negative
mutagenic call [1]: inactive; negative
mutagenic call [2]: inactive; negative
mutagenic call [3]: inactive; negative
mutagenic call [4]: inactive; negative
mutagenic call [5]: inactive; negative
mutagenic call [6]: inactive; negative
mutagenic call [7]: inactive; negative
mutagenic call [8]: inactive; negative
mutagenic call [9]: inactive; negative
mutagenic call [10]: inactive; negative
mutagenic call (Test System: E. COLI, Strain/Indicator: WP2, Metabolic Activation: NONE, Method: STANDARD PLATE): inactive; negative
mutagenic call (Test System: E. COLI, Strain/Indicator: WP2, Metabolic Activation: RAT, LIVER, S-9, AROCLOR 1254, Method: STANDARD PLATE): inactive; negative

Reference: PubChem BioAssay AID1259407 (Chemical Carcinogenesis Research Information System (CCRIS), 2018)
